Reference: patent US8940774B2, “Tris-Quaternary Ammonium Salts and Methods for Modulating Neuronal Nicotinic Acetylcholine Receptors” (University of Kentucky Research Foundation, priority 2005, dated 2015)

Biological target: T1, α3β4 nicotinic receptor subtype expressed in Xenopus oocytes (Rattus norvegicus, UniProt P04757+P12392)
T1 construct: expressed in transfected cells; host or cells: Xenopus laevis oocytes injected with subunit cRNAs
Test: Inhibition of ACh evoked current through nicotinic receptors expressed in Xenopus oocytes (α3β4)
Assay type: cell-based
Settings: co-application with acetylcholine; FIG. 2
Protocol: Rat nicotinic receptor cDNAs clones were linearized and purified, and RNA transcripts were prepared in vitro using the appropriate mMessage mMachine kit. Mature (>9 cm) female Xenopus laevis African toads (Nasco, Ft. Atkinson, Wis.), housed in the Division of Lab Animal Resources at the University of Florida were used as a source of oocytes. Prior to surgery, frogs were anesthetized by placing the animal in a 1.5 g/L solution of MS222 for 30 minutes. Oocytes were removed from an incision made in the abdomen. […]
Each oocyte received two initial control applications of ACh, then a nicotine or analog application, and then a follow-up control application of ACh. […] Responses to each nicotine or analog application were calculated relative to the preceding ACh control responses in order to normalize the data, compensating for the varying levels of channel expression among the oocytes. […] Responses for α7 receptors were calculated as net charge (Papke et al., 2002). For subtypes other than α7, responses were calculated from the peak current amplitudes. Means and standard errors (SEM) were calculated from the normalized responses of at least four oocytes for each drug concentration. […]
For concentration-response relations, data derived from net-charge analyses were plotted using Kaleidagraph 3.0.2 (Abelbeck Software; Reading, Pa.) and curves were generated from the Hill equation […]

T1 sequence (P12392 21-495): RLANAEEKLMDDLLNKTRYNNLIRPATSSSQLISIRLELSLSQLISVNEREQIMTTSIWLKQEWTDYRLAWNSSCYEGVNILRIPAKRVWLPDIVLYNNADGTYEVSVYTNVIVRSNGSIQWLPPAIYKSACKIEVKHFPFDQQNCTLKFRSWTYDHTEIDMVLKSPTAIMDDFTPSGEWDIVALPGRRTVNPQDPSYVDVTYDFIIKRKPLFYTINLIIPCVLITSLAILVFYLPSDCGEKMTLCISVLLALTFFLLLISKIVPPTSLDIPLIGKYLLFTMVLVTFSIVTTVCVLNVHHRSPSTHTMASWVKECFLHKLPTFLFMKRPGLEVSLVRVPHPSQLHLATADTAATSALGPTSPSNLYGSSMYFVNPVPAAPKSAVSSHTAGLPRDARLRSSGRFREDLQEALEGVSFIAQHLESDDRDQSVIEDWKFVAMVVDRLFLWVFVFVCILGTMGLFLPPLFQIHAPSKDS
T1 sequence (P04757 26-499): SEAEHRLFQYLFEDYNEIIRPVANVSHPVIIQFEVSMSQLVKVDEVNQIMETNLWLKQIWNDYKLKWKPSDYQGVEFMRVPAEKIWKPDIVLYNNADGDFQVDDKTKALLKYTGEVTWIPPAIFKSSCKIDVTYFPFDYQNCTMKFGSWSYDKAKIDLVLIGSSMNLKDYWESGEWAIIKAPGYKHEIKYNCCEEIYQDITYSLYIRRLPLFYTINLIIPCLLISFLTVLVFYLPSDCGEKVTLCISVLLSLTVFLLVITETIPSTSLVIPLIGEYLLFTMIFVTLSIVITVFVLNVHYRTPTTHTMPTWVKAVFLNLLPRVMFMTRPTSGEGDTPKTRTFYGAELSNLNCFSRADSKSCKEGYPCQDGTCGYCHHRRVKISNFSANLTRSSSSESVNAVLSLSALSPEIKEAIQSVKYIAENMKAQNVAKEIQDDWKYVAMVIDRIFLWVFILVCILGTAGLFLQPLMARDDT

## CN1CCC[C@H]1c1ccc[n+](CCCC#Cc2cc(C#CCCC[n+]3cccc([C@@H]4CCCN4C)c3)cc(C#CCCC[n+]3cccc([C@@H]4CCCN4C)c3)c2)c1 [GZ551B, 1,3,5-tris-{5-[3-(1-methyl-2-S-pyrrolidinyl)pyridinium]-pent-1-ynyl}-benzene tribromide]
  inhibition of ACh response at α3β4 nicotinic receptor subtype (in words): potently inhibited
